# Experimental data taken from US10264789B2, “Rodentia animal repellent” (SUMITOMO CHEMICAL COMPANY, LIMITED, priority 2014, dated 2019).
# Test system: female mouse (Jcl: ICR lineage)
# Experiment: Repellent test (Experimental Example 1, two-section feed choice apparatus)
# Assay type: in vivo
# Details: drug amount 0.5 g on one sheet of filter paper
# Procedure: Experimental Example 1 (Test Animal: Mouse)
# The repellent test was performed using the repellent test apparatus described in FIG. 1. The apparatus has a residential section for the test animal in the center part, test section 1 and test section 2 setting food on both ends, test section 1 and the residential section are connected by a cylindrical path (diameter 0.05 m, length 2.08 m), and test section 2 and the residential section are also connected by a cylindrical path. The test section 1 and test section 2 are resin cuboid shape (0.68 m×0.40 m×0.32 m) containers, and the connection parts with the paths are opened. The residential section is also a resin cuboid shape (0.28 m×0.45 m×0.16 m), and the upper part made of an iron net so that the air can be taken in. An openable door is set in the connection part between the residential section and the path. Chips for floor:clean chip SP (manufactured by CLEA Japan, Inc.) were spread all over the bottom part of the residential section.
# An acclimation operation was performed before the repellent test to make the test animal experienced with the test apparatus.
# A weighed feed (solid food CE-2 for breeding and raising, manufactured by CLEA Japan, Inc.) (initial feed weight about 10 g) was set in each of test section 1 and test section 2, one female mouse (Jcl: ICR lineage) was placed in the residential section. One day later, the feed remaining in both test sections was weighed, and the eating rate was calculated by the following formula. When the eating rates of the both test sections are considerably different, the feed was changed to a new one, and the acclimation operation was repeated for several days until the eating rate was stabilized, and the eating rates of the both test sections became almost equivalent. eating rate (%)=100×amount eaten (g)/initial feed weight (g) <Repellent Test>
# After completion of the acclimation operation, the same feed (solid food CE-2 for breeding and raising, manufactured by CLEA Japan, Inc.) (about 10 g) was placed in the both test sections. […] After 1 hr from setting the filter paper, the door of the connection part between the residential section and the path was closed, and thereafter the door was opened. After lapse of one day from the start of the test, the feed remaining in the both test sections was weighed. When the test was continued for not less than one day, the feed in the both test sections was exchanged every other day, and the remaining feed was weighed every day.
# The repellent rate was calculated by the following formula. The test section where the filter paper (diameter 70 mm, manufactured by Advantec Toyo Kaisha, Ltd.) treated with the test compound was set was taken as the treatment section, and the test section where the filter paper was not set was taken as the non-treatment section. repellent rate (%)=100×(amount eaten in non-treatment section−amount eaten in treatment section)/(amount eaten in non-treatment section+amount eaten in treatment section)
Compound,repellent rate (%) (number of observation days 1),repellent rate (%) (number of observation days 3)
"c1ccc2scnc2c1 [Comparison compound C, reference compound]",4,–
"FC(F)(F)c1nc2ccccc2s1 [present compound 6, 2-trifluoromethyl-1,3-benzothiazole]",100,–
"Cc1nc2c(C)cccc2s1 [present compound 13, 2,4-dimethyl-1,3-benzothiazole]",100,100
"CC1(C)Nc2ccccc2S1 [present compound 14, 2,2-dimethyl-2,3-dihydro-1,3-benzothiazole]",100,92
"CC(C)Cc1nc2ccccc2s1 [present compound 5, 2-isobutyl-1,3-benzothiazole]",94,–
"Sc1nc2ccccc2s1 [comparison compound A, reference compound]",0,–
"c1ccc(-c2nc3ccccc3s2)cc1 [comparison compound B, reference compound]",0,–
